Assay results from patent US12653805B2, “Targeting LASP1, eIF4A1, eIF4B and CXC4 with modulators and combinations thereof for cancer therapy” (The University of Toledo, priority 2019, dated 2026).

Legend:
eIF4A1 = target: T1, eIF4A1 (Homo sapiens, UniProt P60842); assay type: cell-based; settings: 3 different TNBC cell lines
T1 construct: A GQ-5′-UTR dual reporter was created in breast cancer cell lines; endogenous in cells
From the text: A GQ-5′-UTR dual reporter was created in breast cancer cell lines which would report either a reduction in td-Tomato fluorescence or luciferase activity if eIF4A1 is inhibited by any of the compounds in the Prestwick library (FIGS. 26A-26B).

SUM-159-PT TNBC cells = test: Evaluation of paclitaxel-resistant SUM-159-PT cells; assay type: cell-based, human
Experimental: (§1) Briefly, to assess the cell viability, 3×10^3 cells/well (SUM-159PT, SUM Pac 200 nM, MDA-Bone-Un eIF4A CC and KO) were seeded and the cells were allowed to attach and spread overnight under adherent or non-adherent low attachment conditions.

[1] = system: triple-negative breast cancer (TNBC) cells; test: Cell viability studies with CAST compounds; assay type: cell-based; settings: for concentration level at which efficacy on tumor cell viability was shown: TNBC cell viability
[2] = system: paclitaxel-resistant SUM-159PT cells; test: Chemosensitivity to paclitaxel of CRISPR control and eIF4A1-KO cells derived from paclitaxel-resistant SUM-159PT (CellTiter-Glo); assay type: cell-based, human; settings: 48 h; for IC50: Homo sapiens, SUM-159-PT
Experimental: as §1
For generation of CRISPR/Cas9-mediated eIF4A1 knockout (KO), a set of CRISPR/Cas9 plasmids (Santa Cruz, Dallas, Tex., Cat. #—sc-402623) were transfected into therapy-naïve and paclitaxel-resistant tumor cells using UltraCruz reagent (Santa Cruz, Dallas, Tex., Cat. #— sc-395739) following the manufacturer's instructions. After 24 h, the supernatant was removed and replaced with regular media and cells were further cultured for a total of 72 h. eIF4A1 KO cells were sorted out based on the expression of green fluorescent protein (GFP). Single KO cells were isolated by limiting dilution in 96-well plates. The KO was verified by immunoblotting for eIF4A. Non-targeting CRISPR/Cas9 plasmids were employed to obtain the CRISPR-control cells (Santa Cruz, Dallas, Tex., Cat. #—sc-418922).

SUM-159PT cells = test: Immunoblotting of SUM-159PT cells after chronic paclitaxel treatment (Pac 200)
[3] = system: CXCR4 signaling in 231S cells; test: Western blotting of phosphorylation of eIF4B, PDCD4, 4E-BP1 after CXCR4 activation; assay type: cell-based, human
Experimental: Cell lysates were prepared and quantified as described. Western blots were incubated with the following 1° Abs: Cyclin D1 (Cell Signaling Technology, Danvers, Mass., Cat. No. 2922), eIF4A C32B4 (Cell Signaling Technology, Danvers, Mass., Cat. No. 2013), eIF4B 1F5 (Cell Signaling Technology, Danvers, Mass., Cat. No. 13088), p-eIF4B S422 (Thermo Scientific, Rockford, Ill., Cat No. PA5-38362), eIF4E C46H6 (Cell Signaling Technology, Danvers, Mass., Cat. No. 2067), eIF4G C45A4 (Cell Signaling Technology, Danvers, Mass., Cat. No. 2469), GST 26H1 (Cell Signaling Technology, Danvers, Mass., Cat. No. 2624), LASP1 8C6 (Biolegend, San Diego, Calif., Cat. No. 909301), MDM2 SMP14 (Santa Cruz Biotechnology, Dallas, Tex., Cat. No. sc-965), PDCD4 D29C6 (Cell Signaling Technology, Danvers, Mass., Cat. No. 9535), p-PDCD4 S67 (Sigma-Aldrich, St. Louis, Mo., Cat. No. P0072), ROCK1 C8F7 (Cell Signaling Technology, Danvers, Mass., Cat. No. 4035), survivin 71G4B7 (Cell Signaling Technology, Danvers, Mass., Cat. No. 2808), 4E-BP1 53H11 (Cell Signaling Technology, Danvers, Mass., Cat. No. 9644), p-4E-BP1 Thr70 (Cell Signaling Technology, Danvers, Mass., Cat. No. 9455), and β-tubulin D66 (Sigma/Aldrich, St. Louis, Mo., Cat. No. T0198). Following primary incubation, Western blots were incubated with Goat anti-Mouse IgG (H+L) Superclonal™ Secondary Ab conjugated to HRP (Thermo Scientific, Rockford, Ill., Cat No. A28177) or Goat anti-Rabbit IgG (H+L) Superclonal™ Secondary Ab conjugated to HRP (Thermo Scientific, Rockford, Ill., Cat No. A27036). Finally, blots were developed with Amersham™ ECL™ Prime Western Blotting Detection Reagent (GE Healthcare Life Sciences, Pittsburgh, Pa., Cat. No. RPN2232) and HyBlot ES™ Autoradiography Film (Denville Scientific, Swedesboro, N.J., Cat. No. E3212). Densitometry of the Western blots was performed using ImageJ. Calculation of fold change is given in the figure legend for each experiment.

[4] = system: eIF4F complex in 231S cells; test: m7GTP pulldown assay (eIF4F complex); assay type: cell-based, human
Experimental: 231S cells were serum starved for 1 h and cells were stimulated (and prepared) as described in the co-immunoprecipitation section. 100 nM AMD3465 (CXCR4 antagonist, Sigma-Aldrich, St. Louis, Mo., Cat. No. SML1433-5MG) was incubated 30 min prior to stimulation. 1 mg of total protein lysate in 1 mL of Co-IP buffer was incubated with 25 μL of m7-GTP agarose beads overnight at 4° C. (Jena Biosciences, Jena, Germany, Cat. No. AC-155S). Following incubation, beads were washed with Co-IP buffer. Protein was eluted and analyzed by SDS-PAGE and Western blotting.

[5] = system: LASP1-eIF4A interaction in 231S cells; test: Proximity ligation assay (PLA) of LASP1-eIF4A interaction; assay type: cell-based, human; settings: 100 nM AMD3465 30 min prior to 20 nM CXCL12 5 min
Experimental: The Duolink In Situ Orange Fluorescent kit (Sigma/Aldrich, St. Louis, Mo., Cat. No. DUO92102-1KT) was employed to detect the endogenous interaction between LASP1 and eIF4A in situ in 231S cells. The PLA was performed according to the manufacturer's instructions using a rabbit eIF4A1 antibody (Cohesion Biosciences, London, Purley, Cat. No. CQA1180) and a mouse LASP1 antibody (Biolegend, San Diego, Calif., Cat. No. 909301). The single Ab control condition represents the PLA reaction with only the LASP1 antibody. In addition, cells were stained with phalloidin (Life Technologies, Carlsbad, Calif., Cat. No. A12379) and nuclei with DRAQ5 (Thermo Scientific, Rockford, Ill., Cat No. 62251). Cells were stimulated and inhibited as described. Moreover, cells were fixed, stained, and permeabilized with standard methods. The images were acquired by two-photon confocal microscopy and processed with Leica Application Suite X software (Leica, Wetzlar, Germany). Quantification of the interaction dots was performed using ImageJ.

BCSCs = settings: cited from earlier work
[6] = Pac 200 vs therapy naïve SUM-159PT
[7] = paclitaxel-resistant vs therapy-naïve SUM-159-PT

T1 sequence (P60842 whole entry): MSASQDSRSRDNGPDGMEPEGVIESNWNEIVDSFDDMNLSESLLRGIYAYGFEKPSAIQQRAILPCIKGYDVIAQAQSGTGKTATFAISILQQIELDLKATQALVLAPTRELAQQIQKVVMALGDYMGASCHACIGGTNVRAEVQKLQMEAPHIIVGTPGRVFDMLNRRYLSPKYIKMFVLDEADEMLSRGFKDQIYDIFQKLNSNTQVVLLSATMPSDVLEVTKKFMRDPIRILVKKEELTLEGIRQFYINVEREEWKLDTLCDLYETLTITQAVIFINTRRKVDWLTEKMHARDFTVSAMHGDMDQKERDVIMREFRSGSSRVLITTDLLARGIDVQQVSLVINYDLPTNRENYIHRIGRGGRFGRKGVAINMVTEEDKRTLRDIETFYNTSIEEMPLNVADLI

For `C[C@]12CC[C@H](O)C[C@H]1CC[C@@H]1[C@@H]2CC[C@]2(C)[C@@H](C3=CC(=O)OC3)CC[C@]12O` [digitoxigenin], the “activity of eIF4A1” value (eIF4A1) was “potently inhibited”.
For `COc1cccc2c1C(=O)c1c(O)c3c(c(O)c1C2=O)C[C@@](O)(C(=O)CO)C[C@@H]3O[C@H]1C[C@H](N)[C@H](O)[C@H](C)O1` [doxorubicin], the “cross-resistance of paclitaxel-resistant cells” value (SUM-159-PT TNBC cells; paclitaxel-resistant SUM-159-PT cells) was “cross-resistant”.
`O=C(N/C(=C/c1cccnc1)c1nc2ccccc2[nH]1)c1cccc(Br)c1` [AE-848/14270010] showed a cytotoxicity at 50 µM ([1]; CRISPR/control cells, lowest concentration of 50 μM, read-out: loss of viability of TNBC cells) of ~35%, a viability at 50 µM ([1]; LASP1-knockout cells, 50 μM) of 50% and a loss of viability ([1]; LASP1 genetically knocked out) of 50%. For the same compound, the “concentration level at which efficacy on tumor cell viability was shown” value [1] was 50 µM and the cell viability change ([1]; eIF4A1 knocked out cells) was “gain in viability”.
In the case of `Clc1ccccc1COc1ccc2ccccc2c1CNCc1cccnc1` [AN-465/41673523], the “concentration level at which efficacy on tumor cell viability was shown” value [1] is reported as 75 µM.
For `CC(=O)O[C@H]1C(=O)[C@@]2(C)[C@H]([C@H](OC(=O)c3ccccc3)[C@]3(O)C[C@H](OC(=O)[C@H](O)[C@@H](NC(=O)c4ccccc4)c4ccccc4)C(C)=C1C3(C)C)[C@]1(OC(C)=O)CO[C@@H]1C[C@@H]2O` [paclitaxel], the IC50 ([2]; CRISPR-control SUM-159PT cells (from Pac 200)) was 904 nM, the IC50 ([2]; eIF4A1-KO cells (from Pac 200)) was 609 nM and the “change in IC50, eIF4A1-KO vs CRISPR-control” value ([2]; paclitaxel) was −1.5 fold. For the same compound, the “enhanced expression of Cyclin D3” value (SUM-159PT cells; [6]) was 2.7 fold, the “enhanced expression of NANOG” value (SUM-159PT cells; [6]) was 1.4 fold and the “enhanced expression of OCT4” value (SUM-159PT cells; [6]) was 3 fold. The “enhanced expression of SOX2” value (SUM-159PT cells; [6]) was 2.7 fold, the “enhanced expression of survivin or BIRC5” value (SUM-159PT cells; [6]) was 4 fold and the “increase in ABCB1 (P-glycoprotein, MDR1) protein level” value (SUM-159PT cells; [6]) was 10.8 fold. For the same compound, the “increase in ABCG2 (BCRP) protein level” value (SUM-159PT cells; [6]) was 2.4 fold, the “increase in ALDH1A1 level” value (SUM-159PT cells; [6]) was 2.4 fold and the “increase in CD44 level” value (SUM-159PT cells; [6]) was 6.1 fold. For the same compound, the “increase in expression of eIF4A” value (SUM-159PT cells; [6]) was 25.8 fold, the “enhanced expression of ROCK1” value (SUM-159PT cells; Pac 200 vs therapy naïve SUM-159PT, not statistically significant) was 1.5 fold and the “expression of E-cadherin” value (SUM-159PT cells; [7]) was “decreasing trend”. The “increase in Snail1 protein level” value (SUM-159PT cells; [7]) was 2 fold, the “increase in ABCB1 protein level, independent verification” value (SUM-159PT cells; three biological replicates, p<0.0001) was 14 fold and the “increase in ABCG2 protein level, independent verification” value (SUM-159PT cells; three biological replicates, p<0.001) was 4 fold. It also gave an IC50 (SUM-159-PT TNBC cells; Homo sapiens, SUM-159-PT, parental SUM-159-PT cells, paclitaxel) of 2 nM and a resistance factor (SUM-159-PT TNBC cells; paclitaxel-resistant vs parental SUM-159-PT) of 675.5 fold.
For `c1ccc(CNCc2ccc(CN3CCCNCCNCCCNCC3)cc2)nc1` [AMD3465], the “effect on CXCL12-induced increase in p-eIF4B levels at 10 min” value ([3]; AMD3465) was “abrogated”, the “effect on CXCL12-induced increase in pT70-4E-BP1 levels” value ([3]; AMD3465) was “abrogated” and the “effect on CXCL12-induced increase in pS67-PDCD4 level at 5 min” value ([3]; AMD3465 pretreatment) was “abrogated”. The “effect on peak eIF4G recruitment at 5 min of CXCL12” value ([4]; 100 nM AMD3465) was “reduced”, the “effect on CXCL12-dependent recruitment of LASP1 at 5 min” value ([4]; pre-treatment 100 nM AMD3465) was “abrogated” and the “LASP1-eIF4A interaction dots (interactions/cell)” value [5] was 13.3±10.2 dots.
For `O=C(O)C(Cc1ccccc1[N+](=O)[O-])=NNc1nc(-c2ccc(Cl)c(Cl)c2)cs1` (mixture of isomers) [4EGI-1], the “NANOG, OCT4 levels” value (BCSCs; 4EGI-1 treated BCSCs) is given as “downregulated” and the “proliferation of BCSCs” value (BCSCs) is given as “effectively inhibited”.
In the case of `CC(=O)O[C@H]1C[C@H](O[C@H]2[C@@H](O)C[C@H](O[C@H]3[C@@H](O)C[C@H](O[C@H]4CC[C@@]5(C)[C@H](CC[C@@H]6[C@@H]5C[C@@H](O)[C@]5(C)[C@@H](C7=CC(=O)OC7)CC[C@]65O)C4)O[C@@H]3C)O[C@@H]2C)O[C@H](C)[C@H]1O[C@@H]1O[C@H](CO)[C@@H](O)[C@H](O)[C@H]1O` [lanotoside C], the “activity of eIF4A1” value (eIF4A1) is reported as “potently inhibited”.
